According to patent publication US20250306032A1, “METHODS FOR IDENTIFYING REACTIVE FUNCTIONAL CYSTEINES IN NUCLEAR PROTEINS” (Talus Bioscience, Inc., priority 2022, published 2025):

Columns and labels:
Type in all cases: cell-based
CTCF = target: T1, CTCF (Homo sapiens, UniProt P49711); experiment: Movement of transcription factor between ChESS fractions after NM-IAA treatment; settings: ChESS fractionation after NM-IAA treatment
T1 construct: endogenous in cells; host or cells: THP-1
T1 sequence (P49711 1-727): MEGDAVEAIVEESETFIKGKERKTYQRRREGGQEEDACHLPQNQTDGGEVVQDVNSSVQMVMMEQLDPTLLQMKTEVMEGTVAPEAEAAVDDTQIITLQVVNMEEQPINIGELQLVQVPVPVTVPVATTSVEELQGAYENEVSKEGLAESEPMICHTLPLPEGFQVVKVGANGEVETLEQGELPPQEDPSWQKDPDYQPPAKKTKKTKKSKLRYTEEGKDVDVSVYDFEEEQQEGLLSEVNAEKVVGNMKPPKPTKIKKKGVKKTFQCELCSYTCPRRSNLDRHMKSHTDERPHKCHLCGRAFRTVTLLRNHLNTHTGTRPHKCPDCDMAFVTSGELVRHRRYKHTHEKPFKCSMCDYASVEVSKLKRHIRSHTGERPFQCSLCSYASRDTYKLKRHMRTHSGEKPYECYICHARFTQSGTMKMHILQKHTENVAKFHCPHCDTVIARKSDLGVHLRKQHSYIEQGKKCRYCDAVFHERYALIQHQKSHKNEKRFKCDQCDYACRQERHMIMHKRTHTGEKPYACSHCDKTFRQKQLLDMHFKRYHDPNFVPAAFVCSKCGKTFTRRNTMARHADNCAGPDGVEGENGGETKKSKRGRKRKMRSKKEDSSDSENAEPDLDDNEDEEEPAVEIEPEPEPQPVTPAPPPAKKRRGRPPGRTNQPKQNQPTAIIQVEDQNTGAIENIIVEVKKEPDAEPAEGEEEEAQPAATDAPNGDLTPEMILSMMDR
Description: Five million cells, from leukemia, myeloma, or other cancer cell cultures, were treated with 12.5 μM n-methyl iodoacetamide (NM-IAA) in triplicate for 4 hours. The cells were then washed with phosphate-buffered saline (PBS) and fractionated using chromatin enriching salt separation (ChESS). ChESS used four sequential buffer washes of increasing ionic strength to separate the cellular proteome into cytosolic-, nucleoplasm-, euchromatin-, and heterochromatin-enriched fractions, as outlined in FIG. 1. Each of the fractions was digested using trypsin and analyzed using a data-dependent acquisition (DDA) strategy on an Evosep One-ThermoFisher Exploris 480 orbitrap platform. The results were analyzed using the Comet search tool with the mass of the NM-IAA addition as a variable modification on cysteine residues, then filtered at a 1% false discovery rate with Peptide Prophet or mokapot. DDA results were quantified with FlashLFQ. Each sample was also acquired using a data independent acquisition (DIA) approach on the same mass spectrometer in order to accurately quantify the peptides and proteins in each sample. DIA samples were analyzed using EncyclopeDIA with a spectral library that was generated using the results from DDA analysis and Comet search results or using a predicted spectral library from Prosit. […]

[1] = target: T2, CCCTC-binding factor (CTCF) (Homo sapiens, UniProt P49711); experiment: Reactive cysteine identification by ChESS fractionation and mass spectrometry in THP-1 cells; settings: 12.5 μM, 4 hours, mass spectrometry
T2 construct: endogenous in cells; host or cells: THP-1
T2 sequence (P49711 1-727): T1 sequence (P49711 1-727)
Description: Five million cells, from leukemia, myeloma, or other cancer cell cultures, were treated with 12.5 μM n-methyl iodoacetamide (NM-IAA) in triplicate for 4 hours. The cells were then washed with phosphate-buffered saline (PBS) and fractionated using chromatin enriching salt separation (ChESS). ChESS used four sequential buffer washes of increasing ionic strength to separate the cellular proteome into cytosolic-, nucleoplasm-, euchromatin-, and heterochromatin-enriched fractions, as outlined in FIG. 1. Each of the fractions was digested using trypsin and analyzed using a data-dependent acquisition (DDA) strategy on an Evosep One-ThermoFisher Exploris 480 orbitrap platform. The results were analyzed using the Comet search tool with the mass of the NM-IAA addition as a variable modification on cysteine residues, then filtered at a 1% false discovery rate with Peptide Prophet or mokapot. DDA results were quantified with FlashLFQ. Each sample was also acquired using a data independent acquisition (DIA) approach on the same mass spectrometer in order to accurately quantify the peptides and proteins in each sample. DIA samples were analyzed using EncyclopeDIA with a spectral library that was generated using the results from DDA analysis and Comet search results or using a predicted spectral library from Prosit.
THP-1 acute monocytic leukemia cells were grown to 95% viability. […]

[2] = target: T3, poly(ADP-ribose) polymerase-1 (PARP1) (Homo sapiens, UniProt P09874); experiment: Reactive cysteine identification with Biotin-IA in THP-1 cells (mass spectrum); settings: 10 μM
T3 construct: endogenous in cells; host or cells: THP-1
T3 sequence (P09874 whole entry): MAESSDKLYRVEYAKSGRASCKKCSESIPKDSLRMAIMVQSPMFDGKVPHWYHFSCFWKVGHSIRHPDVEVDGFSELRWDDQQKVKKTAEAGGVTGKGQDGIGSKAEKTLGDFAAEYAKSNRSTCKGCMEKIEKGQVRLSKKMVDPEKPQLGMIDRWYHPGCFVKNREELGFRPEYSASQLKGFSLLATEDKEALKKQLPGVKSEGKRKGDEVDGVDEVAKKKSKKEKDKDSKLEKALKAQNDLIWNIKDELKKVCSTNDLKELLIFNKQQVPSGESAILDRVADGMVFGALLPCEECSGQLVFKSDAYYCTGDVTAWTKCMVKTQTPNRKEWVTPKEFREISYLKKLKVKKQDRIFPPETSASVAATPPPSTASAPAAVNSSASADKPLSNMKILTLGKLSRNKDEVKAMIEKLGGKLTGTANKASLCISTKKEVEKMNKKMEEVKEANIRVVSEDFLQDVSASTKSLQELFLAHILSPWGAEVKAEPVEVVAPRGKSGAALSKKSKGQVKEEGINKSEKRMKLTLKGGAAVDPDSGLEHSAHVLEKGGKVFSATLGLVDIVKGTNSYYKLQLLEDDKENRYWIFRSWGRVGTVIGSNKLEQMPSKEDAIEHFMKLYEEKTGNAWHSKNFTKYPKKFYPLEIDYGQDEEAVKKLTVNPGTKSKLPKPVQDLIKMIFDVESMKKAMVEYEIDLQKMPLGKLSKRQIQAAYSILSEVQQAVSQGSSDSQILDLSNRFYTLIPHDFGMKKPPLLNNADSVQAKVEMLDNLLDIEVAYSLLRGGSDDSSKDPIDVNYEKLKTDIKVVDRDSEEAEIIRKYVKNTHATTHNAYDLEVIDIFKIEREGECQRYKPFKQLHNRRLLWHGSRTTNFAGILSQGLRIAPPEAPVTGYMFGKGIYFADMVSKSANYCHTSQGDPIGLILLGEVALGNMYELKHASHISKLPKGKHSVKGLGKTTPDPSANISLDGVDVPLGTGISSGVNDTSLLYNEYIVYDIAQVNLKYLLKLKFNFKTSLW
Description: The mass shift associated with NM-IAA is 71.03 Dalton (Da). […] THP-1 cells were treated with 10 μM biotin polyethyleneoxide iodoacetamide (Biotin-IA). Biotin-IA reacted with a cysteine in the peptide SDAYYCTGDVTAWTK (SEQ ID NO: 2) from the poly(ADP-ribose) polymerase-1 (PARP1) protein.

Row | Compound | CTCF localisation in ChESS fractions after NM-IAA modification (CTCF) | modification of the cysteine in CTCF peptide YHDPNFVPAAFVCSK (SEQ ID NO: 1) [1] | reaction with a cysteine in PARP1 peptide SDAYYCTGDVTAWTK (SEQ ID NO: 2) [2]
1 | CNC(=O)CI [NM-IAA, n-methyl iodoacetamide] | ejected from heterochromatin and observed in the nucleoplasm fraction | modified | 
2 | biotin polyethyleneoxide iodoacetamide [Biotin-IA] |  |  | reacted
